Assays:
Type in all cases: in vivo
[1] = tested on: Twospotted spider mites (Tetranychus urticae Koch); assay: Mite/insect screen, sprayed squash cotyledons (SM); settings: percent mortality; for mortality at 200 ppm / mortality at 400 ppm: Tetranychus urticae, read-out: SM RESULTS %; for mortality at 200 ppm: spray rate 200 ppm
Protocol: (§1) The compounds of Examples 1-203 were tested for miticidal and insecticidal activity in the following mite/insect screen.
(§2) Each test compound was formulated by dissolving the compound in acetone/alcohol (50:50) mixture containing 23 g of "TOXIMUL R" (sulfonate/nonionic emulsifier blend) and 13 g of "TOXIMUL S" (sulfonate/nonionic emulsifier blend) per liter. These mixtures were then diluted with water to give the indicated concentrations.
(§3) Other plants in the same treatment pot were left uninfested. The leaves were then sprayed with 5 ml of test solution using a DeVilbiss atomizing sprayer at 10 psi. Both surfaces of the leaves were covered until runoff, and then allowed to dry for one hour. Two uninfested leaves were then excised and placed into a Petri dish containing larval southern armyworm (Spodopetra eridania Cramer).
(§4) After standard exposure periods, percent mortality and phytotoxicity were evaluated. […]

[2] = tested on: Pseudoperonospora cubensis (downy mildew); assay: Greenhouse Test 1, foliar spray fungicide screen (DOWN MDEW), host squash; settings: disease control rating, 400 ppm (+++ at 100 ppm)
[3] = tested on: southern armyworm (Spodopetra eridania Cramer); assay: Mite/insect screen, sprayed squash leaves (SAW); settings: percent mortality; for mortality at 200 ppm / mortality at 400 ppm: Spodoptera eridania, read-out: SAW RESULTS %; for mortality at 200 ppm: spray rate 200 ppm
Protocol: as §1, §2, §3, §4

[4] = tested on: Puccinia recondita tritici (leaf rust); assay: Greenhouse Test 1, foliar spray fungicide screen (LEAF RUST), host wheat; settings: disease control rating, 400 ppm (+++ at 100 ppm)
[5] = tested on: melon aphids (Aphis gossypii Glover); assay: Mite/insect screen, sprayed squash cotyledons (MA); settings: percent mortality; for mortality at 200 ppm / mortality at 400 ppm: Aphis gossypii, read-out: MA RESULTS %; for mortality at 200 ppm: spray rate 200 ppm
Protocol: as §1, §2, §3, §4

[6] = tested on: Southern corn rootworm (Diabrotica undecimpuctata howardi Barber); assay: Mite/insect screen, soil treatment (CRW); settings: percent mortality, soil treatment; for mortality at 12 ppm / mortality at 24 ppm: Diabrotica, read-out: CRW RESULTS %; for mortality at 12 ppm: CRW rate 12.00 ppm
Protocol: as §1, §2
Activity on Southern corn rootworm (Diabrotica undecimpuctata howardi Barber) was evaluated by adding two ml of tap water, a presoaked corn seed, and 15 g of dry sandy soil to a one ounce plastic container. The soil was treated with 1 mL of test solution containing a pre-determined concentration of test compound. After six to 12 hours of drying, five 2-3 instar corn rootworm larvae were added to the individual cups, which were then capped and held at 23°C.
as §4

[7] = tested on: Pyricularia oryzae (rice blast); settings: disease control rating, foliar spray, host rice; 400 ppm (+++ at 100 ppm)
[8] = tested on: Botrytis cinerea (gray mold); assay: Greenhouse Test 1, foliar spray fungicide screen (GRAY MOLD), host grape berries; settings: disease control rating, 400 ppm (+++ at 100 ppm)
[9] = tested on: Erysiphe graminis tritici (powdery mildew); assay: Greenhouse Test 1, foliar spray fungicide screen (POWD MDEW), host wheat; settings: disease control rating, 400 ppm (+++ at 100 ppm)

Row | Compound | mortality at 200 ppm [1] | mortality at 400 ppm ([1]; spray rate 400 ppm) | DOWN MDEW [2] | mortality at 200 ppm [3] | mortality at 400 ppm ([3]; spray rate 400 ppm) | LEAF RUST [4] | mortality at 200 ppm [5] | mortality at 400 ppm ([5]; spray rate 400 ppm) | mortality at 12 ppm [6] | mortality at 24 ppm ([6]; CRW rate 24.00 ppm) | RICE BLAST [7] | GRAY MOLD [8] | POWD MDEW [9] | SM RESULTS % ([1]; spray rate 400 ppm) | SAW RESULTS % ([3]; spray rate 400 ppm) | MA RESULTS % ([5]; spray rate 400 ppm) | CRW RESULTS % ([6]; CRW rate 24.00 ppm)
1 | c1ccc2c(CCNc3ncnc4ccccc34)cccc2c1 [Example 23, N-[2-(1-naphthyl)ethyl]-4-quinazolinamine] | 0% | 0% | + (+ = 20-89% control at 400 ppm) | 0% | 0% | + (+ = 20-89% control at 400 ppm) | 0% | 0% | 0% | 0% | + (+ = 20-89% control at 400 ppm) | - (- = 0-19% control at 400 ppm) | - (- = 0-19% control at 400 ppm) | – | – | – | –
2 | C=CC(CCOc1ncnc2ccccc12)CCc1ccccc1 (stereo not shown) [Example 130, 4-[3-ethenyl-5-phenyl-pentyloxy]quinazoline] | 80% | 70% | - (- = 0-19% control at 400 ppm) | 0% | 0% | - (- = 0-19% control at 400 ppm) | 80% | 100% | 0% | 0% | - (- = 0-19% control at 400 ppm) | - (- = 0-19% control at 400 ppm) | + (+ = 20-89% control at 400 ppm) | – | – | – | –
3 | Brc1ccc(CCOc2ncnc3ccccc23)cc1 [Example 22, 4-[2-(4-bromophenyl)ethoxy]quinazoline] | – | 20% | +++ (+++ = 90-100% control at 100 ppm) | – | 0% | +++ (+++ = 90-100% control at 100 ppm) | – | 80% | – | 0% | +++ (+++ = 90-100% control at 100 ppm) | - (- = 0-19% control at 400 ppm) | +++ (+++ = 90-100% control at 100 ppm) | – | – | – | –
4 | Cc1ccc(CCOc2ncnc3c(F)cccc23)cc1 [Example 99] | 100% | 0% | +++ (+++ = 90-100% control at 100 ppm) | 0% | 0% | +++ (+++ = 90-100% control at 100 ppm) | 100% | 0% | 0% | 0% | - (- = 0-19% control at 400 ppm) | - (- = 0-19% control at 400 ppm) | +++ (+++ = 90-100% control at 100 ppm) | – | – | – | –
5 | CC(COc1ncnc2ccccc12)c1ccc(Oc2ccccc2)cc1 (stereo not shown) [Example 161, 4-[2-(4-phenoxyphenyl)propoxy]quinazoline] | 70% | 0% | - (- = 0-19% control at 400 ppm) | 20% | 100% | ++ (++ = 90-100% control at 400 ppm) | 30% | 0% | 0% | 100% | + (+ = 20-89% control at 400 ppm) | - (- = 0-19% control at 400 ppm) | + (+ = 20-89% control at 400 ppm) | – | – | – | –
6 | [3-(3-methoxyphenyl)propyl]quinazoline [Example 72] | – | – | ++ (++ = 90-100% control at 400 ppm) | – | – | +++ (+++ = 90-100% control at 100 ppm) | – | – | – | – | + (+ = 20-89% control at 400 ppm) | - (- = 0-19% control at 400 ppm) | ++ (++ = 90-100% control at 400 ppm) | 0% | 100% | 0% | 0%
